Test results reported in patent publication US20220274947A1, “NOVEL HETEROARYL-TRIAZOLE COMPOUNDS AS PESTICIDES” (Bayer Aktiengesellschaft, priority 2019, published 2022).

Experiments:
Type in all cases: in vivo
[1] = test system: Aedes aegypti strain MONHEIM; assay: Aedes aegypti test (AEDSAE surface treatment & contact assay); settings: exposure 30 minutes, 24 hours after contact, read-out: efficacy (mortality); for mortality at 20 mg/m2: surface concentration 20 mg/m^2, glazed tile
Method: Aedes aegypti Test (AEDSAE Surface Treatment & Contact Assay) Solvent: Aceton+2000 ppm rapeseed oil methyl ester (RME)
(§1) In order to produce a sufficient, active ingredient containing solution it is necessary to solve the test compound in the solvent-mix (acetone at 2 mg/ml/RME 2000 ppm). This solution is pipetted onto a glazed tile and after evaporation of the acetone, adult mosquitoes of the species Aedes aegypti strain MONHEIM are placed onto the dried surface. The exposure time is 30 minutes. Mortality in percent (%) is determined 24 hours after contact of the insects to the treated surface. 100% mortality means that all tested insects are dead, whereas 0% means that no insect died.

Myzus persicae = Myzus persicae oral test; settings: 120 h, read-out: activity (mortality)
Method: Myzus persicae—Oral Test Solvent: 100 parts by weight acetone
To produce a suitable preparation of active compound, 1 part by weight of active compound is mixed with the stated amount of solvent, and the concentrate is diluted with water to the desired concentration.
50 μL compound solution is filled in microtiter plates and 150 μL IPL41 insect medium (33%+15% sugar) is added to obtain a total volume of 200 μL per well. Afterwards the plates are sealed with parafilm through which a mixed population of the green peach aphid (Myzus persicae) can suck on the compound preparation.
After 5 days mortality in % is determined. 100% means all aphids have been killed and 0% means none of the aphids have been killed.

Rhipicephalus microplus [2] = assay: Rhipicephalus (Boophilus) microplus injection test (BOOPMI Inj); settings: 168 h, injection into adult engorged female ticks, egg deposition after 7 days, read-out: activity (efficacy: 100% means all eggs are infertile); for pest or weed control at 0.004 mg: application rate 4 μg/tick; for pest or weed control at 0.02 mg: application rate 20 μg/tick
Method: Rhipicephalus (Boophilus) Microplus—Injection Test (BOOPMI Inj)
Solvent: dimethyl sulfoxide
To produce a suitable preparation of active compound, 10 mg of active compound are dissolved in 0.5 mL solvent, and the concentrate is diluted with solvent to the desired concentration.
Five adult engorged female ticks (Rhipicephalus microplus) are injected with 1 μL compound solution into the abdomen. The ticks are transferred into replica plates and incubated in a climate chamber.
After 7 days egg deposition of fertile eggs is monitored. Eggs where fertility is not visible are stored in a climate chamber till hatching after about 42 days. An efficacy of 100% means all eggs are infertile; 0% means all eggs are fertile.

Diabrotica balteata = Diabrotica balteata spray test; settings: 168 h, wheat seeds, larvae, after 7 days, read-out: activity (efficacy: 100% means all seedlings have grown up like in the untreated, uninfected control); for pest or weed control at 32 µg/disc, 100 g/ha: application rate 100 g/ha (=32 μg/well); for pest or weed control at 160 µg/disc, 500 g/ha: application rate 500 g/ha (=160 μg/well)
Method: Diabrotica balteata—Spray Test Solvent: 78.0 parts by weight of acetone • • 1.5 parts by weight of dimethylformamide Emulsifier: alkylarylpolyglycol ether
(§2) To produce a suitable preparation of active compound, 1 part by weight of active compound is mixed with the stated amount of solvent, and the concentrate is diluted with water, containing an emulsifier concentration of 1000 ppm, to the desired concentration. Further test concentrations are prepared by dilution with emulsifier containing water.
Soaked wheat seeds (Triticum aestivum) are placed in a multiple well plate filled with agar and some water and are incubated for 1 day to germinate (5 seeds per well). The germinated wheat seeds are sprayed with a test solution containing the desired concentration of the active ingredient. Afterwards each unit is infected with 10-20 larvae of the banded cucumber beetle (Diabrotica balteata).
After 7 days efficacy in % is determined. 100% means all the seedlings have grown up like in the untreated, uninfected control; 0% means none of the seedlings have grown.

Rhipicephalus microplus [3] = assay: Rhipicephalus (Boophilus) microplus in-vitro contact test, larval cattle tick, strain Parkhurst (BOOPMI Cont); settings: application rate 5 μg/cm^2 (=500 g/ha), tick larvae, after 48 hours, read-out: activity (efficacy: 100% means all larvae are dead or moribund)
Method: Rhipicephalus (Boophilus) Microplus—In-Vitro Contact Tests Larval Cattle Tick (Strain Parkhurst, Resistant Against Synthetic Pyrethroids) (BOOPMI Cont)
9 mg compound is solved in 1 mL acetone and diluted with acetone to the desired concentration. 250 μL of the test solution is filled in 25 mL glass test tubes and homogeneously distributed on the inner walls by rotation and tilting on a shaking device (2 h at 30 rpm). With a compound concentration of 900 ppm, an inner surface of 44.7 cm^2 and a homogeneous distribution, a dose of 5 μg/cm^2 is achieved.
After the solvent has evaporated, each test tube is filled with 20-50 cattle tick larvae (Rhipicephalus microplus), closed with a perforated lid and incubated in a horizontal position at 85% relative humidity and 27° C. in an incubator. After 48 hours efficacy is determined. The larvae are patted on the ground of the tubes and negative geotactic behavior is recorded.
An efficacy of 100% means all larvae are dead or moribund; 0% means no larvae are dead or moribund.

Spodoptera frugiperda = Spodoptera frugiperda spray test; settings: in Zea mays, 168 h, read-out: activity (mortality)
Method: Spodoptera Fruaiperda—Spray Test
Solvent: 78.0 parts by weight acetone • 1.5 parts by weight dimethylformamide Emulsifier: alkylarylpolyglycol ether
as §2, with “solvents” for “solvent,”, “and” for “and the concentrate”
Maize (Zea mays) leaf sections are sprayed with a preparation of the active ingredient of the desired concentration. Once dry, the leaf sections are infested with fall armyworm larvae (Spodoptera frugiperda).
After 7 days mortality in % is determined. 100% means all caterpillars have been killed and 0% means none of the caterpillars have been killed.

Rhipicephalus sanguineus = Rhipicephalus sanguineus in-vitro contact test, adult brown dog ticks (RHIPSA Cont); settings: 48 h, after 48 hours, read-out: activity (efficacy: 100% means all ticks are dead or moribund); for pest or weed control at 1 µg/cm2, 100 g/ha: application rate 1 μg/cm^2 (=100 g/ha); for pest or weed control at 5 µg/cm2, 500 g/ha: application rate 5 μg/cm^2 (=500 g/ha)
Method: Rhipicephalus sanguineus-In-Vitro Contact Tests with Adult Brown Dog Ticks ([…] Cont) 9 mg compound is solved in 1 mL acetone and diluted with acetone to the desired concentration. 250 μL of the test solution is filled in 25 mL glass test tubes and homogeneously distributed on the inner walls by rotation and tilting on a shaking device (2 h at 30 rpm). […] After 48 hours efficacy is determined. The ticks are patted on the ground of the tubes and are incubated on a heating plate at 45-50° C. for at most 5 minutes. Immotile or uncoordinated moving ticks, which are not able to escape the heat by climbing upwards, are marked as dead or moribund.

Ctenocephalides felis = Ctenocephalides felis oral test (CTECFE Oral); settings: 48 h, read-out: activity (mortality)
Method: Ctenocephalides felis—Oral Test (CTECFE Oral) Solvent: dimethyl sulfoxide
To produce a suitable preparation of active compound, 10 mg of active compound are dissolved in 0.5 mL solvent, and the concentrate is diluted with cattle blood to the desired concentration.
Approximately 20 adult unfed cat fleas (Ctenocephalides felis) are placed in flea chambers. The blood chamber, sealed with parafilm on the bottom, are filled with cattle blood supplied with compound solution and placed on the gauze covered top of the flea chamber, so that the fleas are able to suck the blood. The blood chamber is heated to 37° C. whereas the flea chamber is kept at room temperature.
After 2 days mortality in % is determined. 100% means all the fleas have been killed; 0% means none of the fleas have been killed.

[4] = test system: Musca domestica strain WHO—N; assay: Musca domestica test (MUSCDO surface treatment & contact assay); settings: surface concentration 4 mg/m^2, glazed tile, exposure 30 minutes, 24 hours after contact, read-out: efficacy (mortality)
Method: Musca domestica Test (MUSCDO Surface Treatment & Contact Assay) Solvent: Aceton+2000 ppm rapeseed oil methyl ester (RME)
as §1, with “flies” for “mosquitoes”, “Musca domestica” for “Aedes aegypti”, “WHO—N” for “MONHEIM”

SMILES	pest or weed control at 0.004 mg (Rhipicephalus microplus [2]) [%]	pest or weed control at 32 µg/disc, 100 g/ha (Diabrotica balteata) [%]	pest or weed control at 5 µg/cm2 (Rhipicephalus microplus [3]) [%]	mortality at 100 g/ha (Spodoptera frugiperda) [%]	pest or weed control at 1 µg/cm2, 100 g/ha (Rhipicephalus sanguineus) [%]	mortality at 100 ppm (Ctenocephalides felis) [%]	pest or weed control at 0.02 mg (Rhipicephalus microplus [2]) [%]	other results
C[C@H](NC(=O)c1cc(Cl)cc(C(F)F)c1)c1ncnn1-c1ccc(C#N)cn1 [II- 12]								mortality at 20 mg/m2 [1]: 80 to 100%
C[C@H](NC(=O)c1cc(C(F)(F)F)cc(C(F)(F)F)c1)c1ncnn1-c1cc(C(=O)NCC#N)ccn1 [II-89]	80	100	80					mortality at 0.8 ppm (Myzus persicae): 100%; mortality at 4 ppm (Myzus persicae): 100%
C[C@H](NC(=O)c1cc(C(F)(F)F)cc(C(F)(F)F)c1)c1ncnn1-c1cc(C(=O)NCC(F)(F)F)ccn1 [II-87]		100	80	100				mortality at 4 ppm (Myzus persicae): 100%
C[C@H](NC(=O)c1cc(Br)cc(Br)c1)c1nc(C2CC2)nn1-c1ccc(C#N)cn1 [I-36]	100	100	100	100	100	90		
CC(C)c1nc([C@H](C)NC(=O)c2cc(Br)cc(C(F)(F)F)c2)n(-c2ccc(C#N)cn2)n1 [I-21]	100	80	100	100	100	100	100	pest or weed control at 5 µg/cm2, 500 g/ha (Rhipicephalus sanguineus): 100%
CC(NC(=O)c1cncc(C(F)(F)F)c1)c1nc(Br)nn1-c1ccc(C#N)cn1 (stereo not drawn) [I-50]			100					mortality at 4 ppm (Myzus persicae): 100%
C[C@H](NC(=O)c1cc(Cl)cc(OC(F)(F)F)c1)c1nc(C2CC2)nn1-c1ccc(C#N)cn1 [I-33]	100	100	100				100	mortality at 4 mg/m2 [4]: 80 to 100%
CC(C)c1nc([C@H](C)NC(=O)c2cc(Br)cc(C#N)c2)n(-c2ccc(C#N)cn2)n1 [I-25]	100	100	100	100	100	100	100	pest or weed control at 5 µg/cm2, 500 g/ha (Rhipicephalus sanguineus): 80%
Cc1nc([C@H](C)NC(=O)c2cc(Cl)cc(OC(F)(F)F)c2)n(-c2cc(C#N)ccn2)n1 [II-34]	100	100	100	100	100		100	pest or weed control at 5 µg/cm2, 500 g/ha (Rhipicephalus sanguineus): 100%; mortality at 4 mg/m2 ([1]; surface concentration 4 mg/m^2, glazed tile): 80 to 100%; mortality at 20 mg/m2 [1]: 80 to 100%; pest or weed control at 160 µg/disc, 500 g/ha (Diabrotica balteata): 100%; mortality at 500 g/ha (Spodoptera frugiperda): 100%
Cc1nc([C@H](C)NC(=O)c2cccc(Br)n2)n(-c2ccc(C#N)cn2)n1 [II-59]	100				80	90	100	pest or weed control at 5 µg/cm2, 500 g/ha (Rhipicephalus sanguineus): 80%
C[C@H](NC(=O)c1cc(Br)cc(OC(F)(F)F)c1)c1nc(C2CC2)nn1-c1ccc(C#N)cn1 [I-41]	100		100	100		100		
COc1nc([C@H](C)NC(=O)c2cc(OC(F)(F)F)cc(C(F)F)c2)n(-c2ccc(C#N)cn2)n1 [I-63]		100	100	100				mortality at 4 ppm (Myzus persicae): 100%
CC[C@H](NC(=O)c1cc(Cl)cc(C(F)(F)F)c1)c1nc(C)nn1-c1ncc(OC(F)F)cn1 [II-60]	100		100			100	100	
C[C@H](NC(=O)c1cc(Cl)cc(OC(F)(F)F)c1)c1ncnn1-c1cc(NC(=O)c2ccc(F)cc2)ccn1 [II-20]	100					100	100	
C[C@H](NC(=O)c1cc(Cl)cc(Cl)c1)c1nc(C2CC2)nn1-c1ccc(C#N)cn1 [I-5]	100	100	100	100		100	100	pest or weed control at 160 µg/disc, 500 g/ha (Diabrotica balteata): 100%; mortality at 500 g/ha (Spodoptera frugiperda): 100%
